According to patent US10034879B2, “Substituted benzaldehyde compounds and methods for their use in increasing tissue oxygenation” (Global Blood Therapeutics, Inc., priority 2011, dated 2018):

How the values were obtained:
[1] = target: T1, purified HBS (Homo sapiens, UniProt P68871+P69905, E7V); assay: HbS polymerization assay (delay time); format: biochemical; details: 50 μM purified HBS, 1.8 M potassium phosphate pH 7.4
T1 construct: HbS is purified by the CRO VIRUSYS, from blood obtained from homozygous sickle cell patients; tissue VIRUSYS (CRO that did the purification); host or cells: blood of homozygous sickle cell patients
Method: Polymerization assays are carried out in vitro using purified HBS exchanged into 1.8 M potassium phosphate buffer at pH 7.4. Using a slightly modified protocol (Antonini and Brunori, 1971), HbS is purified by the CRO VIRUSYS, from blood obtained from homozygous sickle cell patients through the Hemoglobinopathy Center at Children's Hospital Oakland Research Institute (CHORI) with Institutional Review Board approval. Compounds are prepared in 100% DMSO and a desired amount is added to 50 μM of purified HBS at a final DMSO concentration of 0.3%. Final potassium phosphate concentration is adjusted to 1.8 M using a combination of 2.5 M potassium phosphate stock solution and water at pH 7.4. The reaction mixture is incubated for an hour at 37° C. and then transferred into a 24-well plate for deoxygenation in a glove box containing 99.5% nitrogen and 0.5% oxygen. The 24-well plate is not covered and incubated at 4° C. on a plate cooler inside the glove box for one and a half hours. Fifty μL of the reaction mixture is transferred into a 96-well plate and the absorbance at 700 nm is measured every minute for one hour at 37° C. in a plate reader located inside the glove box. A plot of the absorbance against time is fitted using a Boltzman sigmoidal fit and the delay time (from zero to time at half Vmax) is measured. To compare and rank compounds, delay times are expressed as percent delay (% DT), which is defined as the difference in delay times for HBS/compound and HBS alone multiplied by 100 and divided by the delay time for HBS alone.
Compounds listed below have been tested in the polymerization assay. Activity ranges are defined by the number of dagger (†) symbols indicated. † denotes activity ≤40% but ≤80%; †† denotes activity >80% but ≤120%; ††† denotes activity >120% but ≤140%; †††† denotes activity >160%.

[2] = target: T2, HbS/A (Homo sapiens, UniProt P68871+P69905, E7V); assay: Relaxed-to-tense transition assay (R/T assay); format: biochemical; details: 3 μM HbS/A
T2 construct: A mixture of HbS/A was purified from blood; from tissue; host or cells: blood of homozygous sickle cell patients
Method: A relaxed-to-tense transition assay (“R/T assay”) was used to determine the ability of substituted benzaldehyde compounds to maintain the high-oxygen affinity relaxed (R) state of hemoglobin under deoxygenated conditions. This ability can be expressed as a “delta R” value (i.e., the change in the time-period of the R state after hemoglobin is treated with a compound, as compared to the period without treatment with the compound). Delta R is the % R to remaining after the compounds treatment compared with no treatment (e.g. if R % without treatment is 8% while with treatment with a target compound is 48% R at 30 μM, then % R is 40% for that compound.
A mixture of HbS/A was purified from blood obtained from homozygous sickle cell patients though the Hemoglobinopathy Center at Children's Hospital Oakland Research Institute (CHORI) with Institutional Review Board approval. HbS/A (at a final concentration of 3 μM) was incubated for 1 hr at 37° C. in presence or absence of compounds in […] potassium phosphate buffer, pH=7.4 and 30 μM 2, 3 diphosphoglycerate (DPG) in 96 well plates in a final volume of 160 μl. Compounds were added at different concentrations (3 μM to 100 μM final concentrations). Plates were covered with a Mylar film. After incubation was completed the Mylar cover was removed and the plates were placed in a Spectrostar Nano plate reader previously heated at 37° C. Five minutes later, N2 (flow rate=20 L/min) was flowed through the spectrophotometer. Spectroscopic measurements (300 nm to 700 nm) were taken every 5 min for 2 hours. Data analysis was performed by using linear regression from the data retrieved for all wavelengths.
Table 4 below lists the delta R values where + indicates a delta R of between 0 and 30, ++ indicates a delta R of between 30 and 50, and +++ indicates a delta R of 50 or greater. Unless noted otherwise, the compounds in Table 2 were tested at 9 μM.

[3] = target: T3, HbS (Homo sapiens, UniProt P68871+P69905, E7V); assay: Whole blood assay, oxygen equilibrium curves of whole blood from sickle cell patients; format: cell-based; details: hematocrit 20%, compound at 1000 μM
T3 construct: Oxygen Equilibrium Curves (OEC) of whole blood before and after treatment; endogenous in cells; host or cells: whole blood (red blood cells) of homozygous sickle cell patients
Method: Oxygen Equilibrium Curves (OEC) of whole blood before and after treatment with different concentrations of substituted benzaldehyde compounds were performed as follows using a HEMOX analyzer (TCS Scientific, New Hope, Pa.). Blood samples from homozygous sickle cell patients were obtained though the Hemoglobinopathy Center at Children's Hospital Oakland Research Institute (CHORI) with Institutional Review Board approval. The hematocrit was adjusted to 20% using autologous plasma and the blood samples were incubated for 1 hour at 37° C. in absence or presence of compounds. 100 μl of these samples were added to 5 mL of Hemox buffer (30 mM TES, 130 mM NaCl, 5 mM KCl, pH=7.4) at 37° C. and then transferred to the Hemox sample chamber. The samples were saturated with oxygen by flushing with compressed air for 10 minutes. The samples were then flushed with pure nitrogen and the respective absorbances of oxy- and deoxy-Hb are recorded as a function of the solution pO2. The oxygen equilibrium data were then fitted to the Hill Model to obtain values for p50. The deoxygenation curves for both whole blood alone (control) and whole blood in the presence of the compound were collected with the TCS software.
Table 5 below lists the delta p50% values where + indicates a delta p50% of between 0 and 29, ++ indicates a delta p50% of between 30 and 50, and +++ indicates a delta p50% of 50 or greater. The compounds in Table 2 were tested at 1000 μM.

[4] = tested on: Transgenic mice producing human HbS; details: extreme hypoxia (5% oxygen), vs non-treated mice; cited from earlier work

Structure (SMILES)	% delta Delay [1]	delta R (%) ([2]; compound at 9 μM)	delta p50% [3]	amounts of hypoxia-induced sickled red blood cells [4]	survival times [4]	delta R (%) ([2]; compound at 30 μm)
O=Cc1ccccc1OCc1ccc(C(=O)O)cc1 [Compound 47, 4-((2-formylphenoxy)methyl)benzoic acid]	†† (†† denotes activity >80% but ≤120%)	–	–	–	–	–
O=Cc1c(O)cccc1OCc1ccc(-c2nn[nH]n2)cc1 [Compound 45, 2-((4-(2H-tetrazol-5-yl)benzyl)oxy)-6-hydroxybenzaldehyde]	†† (†† denotes activity >80% but ≤120%)	+++ (+++ indicates a delta R of 50 or greater)	+ (+ indicates a delta p50% of between 0 and 29)	–	–	–
O=Cc1c(O)cccc1OCc1cccc(-c2nn[nH]n2)c1 [Compound 44, 2-((3-(2H-tetrazol-5-yl)benzyl)oxy)-6-hydroxybenzaldehyde]	–	+++ (+++ indicates a delta R of 50 or greater)	+ (+ indicates a delta p50% of between 0 and 29)	–	–	–
O=Cc1ccc(CO)o1 [Compound 5HMF, 5-hydroxymethyl-2-furfuraldehyde]	–	–	–	reduced	significantly improved	–
O=Cc1c(O)cccc1OCc1ccc(C(=O)O)cc1 [Compound 42, 4-((2-formyl-3-hydroxyphenoxy)methyl)benzoic acid]	†† (†† denotes activity >80% but ≤120%)	–	+ (+ indicates a delta p50% of between 0 and 29)	–	–	+++ (30 μm) (+++ indicates a delta R of 50 or greater)
